Assay results taken from article PMC9332213, “Simple Detection of DNA Methyltransferase with an Integrated Padlock Probe” (Biosensors, 2022).

Biological target: T1, M.SssI (Spiroplasma monobiae, UniProt P15840)
T1 construct: gene sssIM
Assay: padlock probe/RCA fluorescence methyltransferase activity assay with commercial M.SssI ([…] U/mL)
Format: biochemical

T1 sequence (P15840 whole entry): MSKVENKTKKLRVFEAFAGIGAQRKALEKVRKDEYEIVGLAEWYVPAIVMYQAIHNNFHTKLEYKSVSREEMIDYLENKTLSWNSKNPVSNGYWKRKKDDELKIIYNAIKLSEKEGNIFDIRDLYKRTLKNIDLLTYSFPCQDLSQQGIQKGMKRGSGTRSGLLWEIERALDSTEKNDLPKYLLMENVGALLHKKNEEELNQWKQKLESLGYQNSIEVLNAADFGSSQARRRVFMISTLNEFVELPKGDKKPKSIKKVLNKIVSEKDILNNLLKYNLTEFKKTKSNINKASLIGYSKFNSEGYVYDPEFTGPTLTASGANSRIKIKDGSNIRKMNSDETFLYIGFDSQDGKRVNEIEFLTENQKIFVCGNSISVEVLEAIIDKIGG

In the case of `Nc1ncn([C@@H]2O[C@H](CO)[C@@H](O)[C@H]2O)c(=O)n1` [5-Aza, 5-Azacytidine], the IC50 is reported as 4.91 µM.

Work on `O=c1[nH]cc(F)c(=O)[nH]1` [5-F, 5-fluorouracil] yielded an IC50 of 8.84 µM.
